ChEMBL document CHEMBL3108681, “Inhibitors of Tropomyosin-Receptor Kinases (Trk's): Potential Pain Therapy and More” (ACS Med Chem Lett, 2014)

Molecular target: High affinity nerve growth factor receptor (Homo sapiens, UniProt P04629)
Assay: Inhibition of TrkA (unknown origin) using fluorescently labeled peptide substrate after 3 hrs

High affinity nerve growth factor receptor, sequence (P04629 whole entry): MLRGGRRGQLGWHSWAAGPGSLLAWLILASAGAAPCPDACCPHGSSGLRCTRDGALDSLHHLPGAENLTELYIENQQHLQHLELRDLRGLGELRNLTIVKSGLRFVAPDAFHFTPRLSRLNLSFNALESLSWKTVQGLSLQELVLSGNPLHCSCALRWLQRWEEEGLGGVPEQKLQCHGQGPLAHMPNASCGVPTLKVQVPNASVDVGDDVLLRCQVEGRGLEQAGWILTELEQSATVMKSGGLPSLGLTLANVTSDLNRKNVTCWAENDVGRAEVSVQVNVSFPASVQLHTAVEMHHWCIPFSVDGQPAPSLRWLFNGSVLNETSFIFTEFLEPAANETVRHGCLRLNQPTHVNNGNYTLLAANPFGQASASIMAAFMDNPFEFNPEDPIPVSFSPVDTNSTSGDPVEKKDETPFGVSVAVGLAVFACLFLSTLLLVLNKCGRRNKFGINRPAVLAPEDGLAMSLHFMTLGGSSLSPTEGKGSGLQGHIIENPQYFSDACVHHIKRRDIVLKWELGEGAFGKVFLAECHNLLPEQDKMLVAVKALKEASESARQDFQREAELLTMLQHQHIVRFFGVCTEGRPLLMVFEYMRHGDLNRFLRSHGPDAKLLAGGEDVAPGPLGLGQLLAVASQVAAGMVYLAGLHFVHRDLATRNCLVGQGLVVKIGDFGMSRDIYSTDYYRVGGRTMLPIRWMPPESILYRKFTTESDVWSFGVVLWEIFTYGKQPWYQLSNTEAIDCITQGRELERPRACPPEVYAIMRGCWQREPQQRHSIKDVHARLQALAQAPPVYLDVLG

Row | EC50 | Compound
1 | 1010 nM | CC1(C)CN(c2ccc(OC(F)(F)F)cc2)C(=O)N1Cc1cccc(-c2nccs2)c1
2 | 11.3 nM | CC(C)N(Cc1c[nH]c2ncccc12)C(=O)Nc1ccc(OC(F)(F)F)cc1
3 | 6.5 nM | CC(C)N(Cc1c[nH]c2ncccc12)C(=O)Nc1ccc(SC(F)(F)F)cc1
